Measurements: the supplement of paper PMC13380429

Legend:
Conditions in all cases: 72 h
Caco-2 [1] = assay: drug sensitivity score (DSS) for viability; higher = more toxic; extreme values may be limits of the assay
HepG2 [2] = assay: as above
Calu-3 [3] = assay: as above
Vero E6 [4] = assay: as above
U2OS [5] = assay: as above
Caco-2 [6] = assay: cell viability relative to DMSO; higher = less toxic
HepG2 [7] = assay: as above
Calu-3 [8] = assay: as above
Vero E6 [9] = assay: as above
U2OS [10] = assay: as above
Caco-2 [11] = assay: relative viability EC50 (midpoint between 100% and the lowest measured viability); higher = less toxic
HepG2 [12] = assay: as above
Calu-3 [13] = assay: as above
Vero E6 [14] = assay: as above
U2OS [15] = assay: as above

Compound	drug sensitivity score (Caco-2 [1])	drug sensitivity score (HepG2 [2])	drug sensitivity score (Calu-3 [3])	drug sensitivity score (Vero E6 [4])	drug sensitivity score (U2OS [5])	cell viability (Caco-2 [6]; 1 nM) [%]	cell viability (Caco-2 [6]; 10 nM) [%]	cell viability (Caco-2 [6]; 100 nM) [%]	cell viability (Caco-2 [6]; 1000 nM) [%]	cell viability (Caco-2 [6]; 10000 nM) [%]	cell viability (HepG2 [7]; 1 nM) [%]	cell viability (HepG2 [7]; 10 nM) [%]	cell viability (HepG2 [7]; 100 nM) [%]	cell viability (HepG2 [7]; 1000 nM) [%]	cell viability (HepG2 [7]; 10000 nM) [%]	cell viability (Calu-3 [8]; 1 nM) [%]	cell viability (Calu-3 [8]; 10 nM) [%]	cell viability (Calu-3 [8]; 100 nM) [%]	cell viability (Calu-3 [8]; 1000 nM) [%]	cell viability (Calu-3 [8]; 10000 nM) [%]	cell viability (Vero E6 [9]; 1 nM) [%]	cell viability (Vero E6 [9]; 10 nM) [%]	cell viability (Vero E6 [9]; 100 nM) [%]	cell viability (Vero E6 [9]; 1000 nM) [%]	cell viability (Vero E6 [9]; 10000 nM) [%]	cell viability (U2OS [10]; 1 nM) [%]	cell viability (U2OS [10]; 10 nM) [%]	cell viability (U2OS [10]; 100 nM) [%]	cell viability (U2OS [10]; 1000 nM) [%]	cell viability (U2OS [10]; 10000 nM) [%]	relative viability EC50 (Caco-2 [11]) [µM]	relative viability EC50 (HepG2 [12]) [µM]	relative viability EC50 (Calu-3 [13]) [µM]	relative viability EC50 (Vero E6 [14]) [µM]	relative viability EC50 (U2OS [15]) [µM]
COc1cc2c(c(OC)c1OC)-c1c(cc3c(c1OC)OCO3)C[C@H](C)[C@@](C)(O)C2 [schisandrol-B]	0	0	0	0	0	104	92	95.9	95.9	97.4	100	114	93.3	98.4	100	100	92.8	101	105	96.5	102	102	102	100	97.8	101	99.9	105	103	97.9	> 10	> 10	> 10	> 10	> 10
C[N+]1([O-])[C@@H]2C[C@@H](OC(=O)[C@H](CO)c3ccccc3)C[C@H]1[C@@H]1O[C@@H]12 (stereo not given in full) [scopolamine-N-oxide]	0	0	0	0	0	88.4	97.6	85.9	96.6	102	105	93.1	107	107	108	99.7	95.4	100	102	94.5	93.1	83.9	104	97.4	107	93.9	96.5	93.9	98.5	104	> 10	> 10	> 10	> 10	> 10
COC1=C[C@@H]2[C@@H]3Cc4ccc(OC)c(O)c4[C@]2(CCN3C)CC1=O [sinomenine]	0	0.4	0	0	0	107	96.9	90.5	98.8	104	109	104	99.2	88.5	96.3	100	95.4	100	92.4	95.8	105	97.7	103	97	105	94.1	98.5	98.8	104	94.3	> 10	> 10	> 10	> 10	> 10
